In ChEMBL document CHEMBL1149576, “Convergent synthesis and in vivo inhibitory effect on fat accumulation of (-)-ternatin, a highly N-methylated cyclic peptide” (2007):
Active and inactive are the calls of the source. The rule behind the calls is not given here.

Test system: 3T3-L1
Assay: Inhibition of fat accumulation in mouse 3T3L1 adipocytes
Type: functional, cell-based

## CC[C@H](C)[C@H]1NC(=O)[C@@H]([C@H](O)C(C)C)NC(=O)[C@@H](C)N(C)C(=O)[C@H](C)N(C)C(=O)[C@H](CC(C)C)NC(=O)[C@H](CC(C)C)N(C)C(=O)[C@H](C)N(C)C1=O
  Activity: Active
